Assay results published in patent EP2578588A1 (World-Trade Import-Export Wtie, AG, priority 2010, dated 2011).

Target: enzyme PDE-5 (Homo sapiens, UniProt O76074)
Experiment: Phosphodiesterase 5 (PDE-5) inhibition activity in in vitro tests
Format: biochemical
Details: read-out: CI5C
Description: The following data illustrate the inhibiting activity of the compounds of the present invention on the enzyme PDE-5.

Row | SMILES | IC50 [nM]
1 | CCCc1nn(C)c2c(=O)[nH]c(-c3cc(S(=O)(=O)N4CCCNCC4)ccc3OCC)nc12 [Compound 1, 5-(5-(1,4-diazepan-1-ylsulfonyl)-2-ethoxiphenyl)-1-methyl-3-propyl-1H-pyrazolo[4,3-d]pyrimidin-7(6H)-one] | 4.2
2 | CCCc1nn(C)c2c(=O)[nH]c(-c3cc(S(=O)(=O)N4CCCN(C(C)=O)CC4)ccc3OCC)nc12 [Compound 2, 5-(5-(4-acetyl-1,4-diazepan-1-ylsulfonyl)-2-ethoxyphenyl)-1-methyl-3-propyl-1H-pyrazolo[4,3-d]pyrimidin-7(6H)-one] | 6.4
3 | CCCc1nn(C)c2c(=O)[nH]c(-c3cc(S(=O)(=O)N4CCCN(CCC(=O)O)CC4)ccc3OCC)nc12 [Compound 7] | 1.2
4 | CCCc1nn(C)c2c(=O)[nH]c(-c3cc(S(=O)(=O)N4CCCN(C(=O)OC(C)(C)C)CC4)ccc3OCC)nc12 [Compound 5, tert-butyl 4-(4-ethoxy-3-(1-methyl-7-oxo-3-propyl-6,7-dihydro-1H-pyrazolo[4,3-d]pyrimidin-5-yl)phenylsulfonyl)-1,4-diazepane-1-carboxylate] | 3.5
5 | CCCc1nn(C)c2c(=O)[nH]c(-c3cc(S(=O)(=O)N4CCCN(C)CC4)ccc3OCC)nc12 [Compound 3, 5-(2-ethoxy-5-(4-methyl-1,4-diazepan-1-ylsulfonyl)phenyl)-1-methyl-3-propyl-1H-pyrazolo[4,3-d]pyrimidin-7(6H)-one] | 2.8
6 | CCCc1nn(C)c2c(=O)[nH]c(-c3cc(S(=O)(=O)N4CCCN(CCCO)CC4)ccc3OCC)nc12 [Compound 4] | 1.8
7 | CCCc1nn(C)c2c(=O)[nH]c(-c3cc(S(=O)(=O)N4CCCN(C)CC4)cnc3OCC)nc12 [Compound 6, 5-(2-ethoxy-5-(4-methyl-1,4-diazepan-1-ylsulfonyl)pyridin-3-yl)-1-methyl-3-propyl-1H-pyrazolo[4,3-d] pyrimidin-7(6H)-one] | 2.2
